What is called pEC50 is the EC50 on a negative log10 scale, so that one unit is a factor of ten. A low value points to a high EC50. The term pIC50 denotes the negative decadic logarithm of the IC50, by convention in mol/L.

Structures are written as SMILES. pEC50, pIC50: −log10 of the molar value.

In experiment [1] the test system is A549 cells. Briefly: Proliferation Assay (A549 viability, Cell Titer Fluor, 72 hours). Particulars: Homo sapiens, A549, 72 h. Format: cell-based. In short, it runs like this:
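Cell Titer Fluor fluorescence after 72 h compound treatment (0.5% DMSO, 37 °C, 5% CO2) of A549 cells plated 24 h earlier at 1000/well. Four-parameter logistic fitting gave IC50.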

The target of experiment [2] is purified recombinant human GAC (GLS1) (Homo sapiens (Human), UniProt O94925). The experiment in a line: GLS1 Enzymatic Activity Assay (dual-coupled enzymatic assay, resorufin/Amplex UltraRed readout).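 Note: glutamate from GAC coupled via glutamate oxidase and peroxidase to resorufin, read as fluorescence (ex 530, em 590 nm) kinetically or at 20 min, four-parameter logistic IC50 fit.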 Format: biochemical.
Chain of purified recombinant human GAC (GLS1) (O94925 other isoform, or with tags, fused parts or gaps): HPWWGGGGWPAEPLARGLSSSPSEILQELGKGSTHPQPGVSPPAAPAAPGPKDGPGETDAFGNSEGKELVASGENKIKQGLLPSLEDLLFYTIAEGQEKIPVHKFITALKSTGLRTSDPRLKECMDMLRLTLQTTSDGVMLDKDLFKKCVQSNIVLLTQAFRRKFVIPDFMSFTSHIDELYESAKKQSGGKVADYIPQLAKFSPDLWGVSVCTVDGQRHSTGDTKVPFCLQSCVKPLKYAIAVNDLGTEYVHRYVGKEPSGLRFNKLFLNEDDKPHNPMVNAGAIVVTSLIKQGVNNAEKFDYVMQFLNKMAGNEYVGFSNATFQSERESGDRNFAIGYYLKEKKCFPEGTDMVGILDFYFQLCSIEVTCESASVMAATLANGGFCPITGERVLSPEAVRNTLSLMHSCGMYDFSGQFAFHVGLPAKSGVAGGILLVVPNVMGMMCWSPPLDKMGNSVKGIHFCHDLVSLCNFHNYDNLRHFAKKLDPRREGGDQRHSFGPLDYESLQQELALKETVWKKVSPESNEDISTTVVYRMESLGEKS

Molecule `O=C(NCc1cccc(C2CC2)c1)c1cn(CCCCn2cc(C(=O)NCc3cc(C4CC4)ccn3)nn2)nn1` [Example 128, N-[(3-cyclopropylphenyl)methyl]-1-[4-(4-{[(4-cyclopropylpyridin-2-yl)methyl]carbamoyl}-1H-1,2,3-triazol-1-yl)butyl]-1H-1,2,3-triazole-4-carboxamide] gave a pEC50 in experiment [1] greater than 7.00. Moreover, in experiment [2], the pIC50 is greater than 7.00.
In turn, `O=C(NCc1cccc(C2CC2)c1)c1cn(CCC(F)Cn2cc(C(=O)NCc3cc(C4CC4)ccn3)nn2)nn1` (stereo not shown) [Example 129, N-[(3-cyclopropylphenyl)methyl]-1-[4-(4-{[(4-cyclopropylpyridin-2-yl)methyl]carbamoyl}-1H-1,2,3-triazol-1-yl)-3-fluorobutyl]-1H-1,2,3-triazole-4-carboxamide] had a negative-log EC50 (pEC50) in experiment [1] greater than 7.00. Besides, the pIC50 in experiment [2] was greater than 7.00.
`O=C(NCc1cc(C(F)(F)F)ccn1)c1cn(CC(F)CCn2cc(C(=O)N[C@H](CO)c3ccccc3)nn2)nn1` (stereo partly drawn) [Example 130, 1-[2-fluoro-4-(4-{[(1S)-2-hydroxy-1-phenylethyl]carbamoyl}-1H-1,2,3-triazol-1-yl)butyl]-N-1{[4-(trifluoromethyl)pyridin-2-yl]methyl}-1H-1,2,3-triazole-4-carboxamide] gave a pEC50 in experiment [1] of 6.30 to 7.00. In addition, in experiment [2], the pIC50 is 6.30 to 7.00.
`C[C@@H](NC(=O)c1cn(CCC(F)Cn2cc(C(=O)NCc3cc(C(F)(F)F)ccn3)nn2)nn1)c1ccccc1` (stereo partly drawn) [Example 131, 1-[2-fluoro-4-(4-{[(1R)-1-phenylethyl]carbamoyl}-1H-1,2,3-triazol-1-yl)butyl]-N-{[4-(trifluoromethyl)pyridin-2-yl]methyl}-1H-1,2,3-triazole-4-carboxamide] gave a pEC50 in experiment [1] of 6.30 to 7.00. Moreover, the pIC50 in experiment [2] is 6.30 to 7.00.
The molecule `O=C(NCc1cccc(OC(F)F)c1)c1cn(CCCCn2cc(C(=O)NCc3cc(C(F)(F)F)ccn3)nn2)nn1` [Example 132, {4-[4-({[3-(difluoromethoxy)phenyl]methyl}carbamoyl)-1H-1,2,3-triazol-1-yl]butyl}-N-{[4-(trifluoromethyl)pyridin-2-yl]methyl}-1H-1,2,3-triazole-4-carboxamide] showed a pEC50 in experiment [1] greater than 7.00. Also, in experiment [2], the pIC50 is greater than 7.00.
On to `O=C(NCc1cccc(C2CC2)c1)c1cn(CCCCn2cc(C(=O)NCc3cncc(C(F)(F)F)c3)nn2)nn1` [Example 133, 1-[4-(4-{[(3-cyclopropylphenyl)methyl]carbamoyl}-1H-1,2,3-triazol-1-yl)butyl]-N-{[5-(trifluoromethyl)pyridin-3-yl]methyl}-1H-1,2,3-triazole-4-carboxamide], for which the pEC50 in experiment [1] is greater than 7.00. Further, the pIC50 in experiment [2] is greater than 7.00.
As for `O=C(NCc1cncc(C(F)(F)F)c1)c1cn(CCCCn2cc(C(=O)NCc3cc(C4CC4)ccn3)nn2)nn1` [Example 135, 1-[4-(4-{[(4-cyclopropylpyridin-2-yl)methyl]carbamoyl}-1H-1,2,3-triazol-1-yl)butyl]-N-{[5-(trifluoromethyl)pyridin-3-yl]methyl}-1H-1,2,3-triazole-4-carboxamide], in experiment [1], the pEC50 was greater than 7.00. The pIC50 in experiment [2] is greater than 7.00.
In turn, `CC1(C)Oc2ccc(CNC(=O)c3cn(CCCCn4cc(C(=O)NCc5cncc(C(F)(F)F)c5)nn4)nn3)cc2O1` [Example 136, 1-[4-(4-{[(2,2-dimethyl-2H-1,3-benzodioxol-5-yl)methyl]carbamoyl}-1H-1,2,3-triazol-1-yl)butyl]-N-{[5-(trifluoromethyl)pyridin-3-yl]methyl}-1H-1,2,3-triazole-4-carboxamide] had a pEC50 in experiment [1] greater than 7.00. In addition, in experiment [2], the pIC50 was greater than 7.00.
`CC1(C)Oc2ccc(CNC(=O)c3cn(CCCCn4cc(C(=O)NCc5cc(C(F)(F)F)ccn5)nn4)nn3)cc2O1` [Example 137, 1-[4-(4-{[(2,2-dimethyl-2H-1,3-benzodioxol-5-yl)methyl]carbamoyl}-1H-1,2,3-triazol-1-yl)butyl]-N-{[4-(trifluoromethyl)pyridin-2-yl]methyl}-1H-1,2,3-triazole-4-carboxamide] gave a pEC50 in experiment [1] greater than 7.00. Also, in experiment [2], the pIC50 is greater than 7.00.
For the molecule `O=C(NCc1cccc(OC(F)(F)F)c1)c1cn(CCCCn2cc(C(=O)NC[C@@H](O)c3ccccc3)nn2)nn1` [Example 138, N-[(2S)-2-hydroxy-2-phenylethyl]-1-{4-[4-({[3-(trifluoromethoxy)phenyl]methyl}carbamoyl)-1H-1,2,3-triazol-1-yl]butyl}-1H-1,2,3-triazole-4-carboxamide], in experiment [1], the pEC50 is 6.30 to 7.00. In experiment [2], the pIC50 is 6.30 to 7.00.
Regarding `O=C(NCc1cccc(OC(F)(F)F)c1)c1cn(CCCCn2cc(C(=O)NC[C@H](O)c3ccccc3)nn2)nn1` [Example 139, N-[(2R)-2-hydroxy-2-phenylethyl]-1-{4-[4-({[3-(trifluoromethoxy)phenyl]methyl}carbamoyl)-1H-1,2,3-triazol-1-yl]butyl}-1H-1,2,3-triazole-4-carboxamide], the negative-log EC50 (pEC50) in experiment [1] is 6.30 to 7.00. Moreover, in experiment [2], the pIC50 was 6.30 to 7.00.
In experiment [1], `O=C(NCc1cncc(C(F)(F)F)c1)c1cn(CCCCn2cc(C(=O)NCc3cncc(C(F)(F)F)c3)nn2)nn1` [Example 140, N-{[5-(trifluoromethyl)pyridin-3-yl]methyl}-1-{4-[4-({[5-(trifluoromethyl)pyridin-3-yl]methyl}carbamoyl)-1H-1,2,3-triazol-1-yl]butyl}-1H-1,2,3-triazole-4-carboxamide] had a pEC50 greater than 7.00. Further, the pIC50 in experiment [2] is greater than 7.00.
Consider `O=C(NCc1cncc(C(F)(F)F)c1)c1cn(CCCCn2cc(C(=O)NCc3cc(C(F)(F)F)ccn3)nn2)nn1` [Example 141, 1-{4-[4-({[4-(trifluoromethyl)pyridin-2-yl]methyl}carbamoyl)-1H-1,2,3-triazol-1-yl]butyl}-N-{[5-(trifluoromethyl)pyridin-3-yl]methyl}-1H-1,2,3-triazole-4-carboxamide], for which the pEC50 in experiment [1] is greater than 7.00. Also, the pIC50 in experiment [2] was greater than 7.00.
Regarding `O=C(NCc1cncc(C(F)(F)F)c1)c1cn(CCCCn2cc(C(=O)NCc3ccc(C(F)(F)F)cn3)nn2)nn1` [Example 142, 1-{4-[4-({[5-(trifluoromethyl)pyridin-2-yl]methyl}carbamoyl)-1H-1,2,3-triazol-1-yl]butyl}-N-{[5-(trifluoromethyl)pyridin-3-yl]methyl}-1H-1,2,3-triazole-4-\ carboxamide], the pEC50 in experiment [1] was greater than 7.00. Also, the pIC50 in experiment [2] was greater than 7.00.
Regarding `O=C(NCc1ccc(C(F)(F)F)nc1)c1cn(CCCCn2cc(C(=O)NCc3cncc(C(F)(F)F)c3)nn2)nn1` [Example 143, N-{[5-(trifluoromethyl)pyridin-3-yl]methyl}-1-{4-[4-({[6-(trifluoromethyl)pyridin-3-yl]methyl}carbamoyl)-1H-1,2,3-triazol-1-yl]butyl}-1H-1,2,3-triazole-4-carboxamide], the pEC50 in experiment [1] was greater than 7.00. Also, the negative-log IC50 (pIC50) in experiment [2] is greater than 7.00.
In experiment [1], `O=C(NCc1cncc(C(F)(F)F)c1)c1cn(CCCCn2cc(C(=O)NCc3cccc(C(F)(F)F)n3)nn2)nn1` [Example 144, 1-{4-[4-({[6-(trifluoromethyl)pyridin-2-yl]methyl}carbamoyl)-1H-1,2,3-triazol-1-yl]butyl}-N-{[5-(trifluoromethyl)pyridin-3-yl]methyl}-1H-1,2,3-triazole-4-carboxamide] gave a negative logarithm of the EC50 (pEC50) greater than 7.00. In addition, the pIC50 in experiment [2] is greater than 7.00.
`O=C(NCc1cc(C(F)(F)F)ccn1)c1cn(CCC(F)Cn2cc(C(=O)NCc3cncc(C(F)(F)F)c3)nn2)nn1` (stereo not shown) [Example 145, 1-{3-fluoro-4-[4-({[5-(trifluoromethyl)pyridin-3-yl]methyl}carbamoyl)-1H-1,2,3-triazol-1-yl]butyl}-N-1{[4-(trifluoromethyl)pyridin-2-yl]methyl}-1H-1,2,3-triazole-4-carboxamide]: the pEC50 in experiment [1] was greater than 7.00. Moreover, in experiment [2], the pIC50 is greater than 7.00.
In experiment [1], `O=C(NCc1cccc(OC(F)(F)F)c1)c1cn(CCCCn2cc(C(=O)NCc3cncc(N4CC(F)(F)C4)c3)nn2)nn1` [Example 146, N-{[5-(3,3-difluoroazetidin-1-yl)pyridin-3-yl]methyl}-1-{4-[4-({[3-(trifluoromethoxy)phenyl]methyl}carbamoyl)-1H-1,2,3-triazol-1-yl]butyl}-1H-1,2,3-triazole-4-carboxamide] gave a pEC50 greater than 7.00. In addition, the pIC50 in experiment [2] is greater than 7.00.
`O=C(NCc1cccc(OC(F)(F)F)c1)c1cn(CCC(F)Cn2cc(C(=O)NCc3cc(C4CC4)ccn3)nn2)nn1` (stereo not shown) [Example 147] had a pEC50 in experiment [1] greater than 7.00. Besides, the pIC50 in experiment [2] is greater than 7.00.
For `O=C(NCc1cc(C2CC2)ccn1)c1cn(CCC(F)Cn2cc(C(=O)NCc3cccc(OC(F)(F)F)c3)nn2)nn1` (stereo not shown) [Example 148, 1-[4-(4-({[4-cyclopropylpyridin-2-yl)methyl]carbamoyl}-1H-1,2,3-triazol-1-yl)-2-fluorobutyl]-N-{[3-(trifluoromethoxy)phenyl]methyl}-1H-1,2,3-triazole-4-carboxamide], the pEC50 in experiment [1] was greater than 7.00. For the same molecule, the pIC50 in experiment [2] was greater than 7.00.
In the case of `CNC(=O)c1cn(CC(F)CCn2cc(C(=O)NCc3cc(C(F)(F)F)ccn3)nn2)nn1` (stereo not shown) [Example 149, 1-{2-fluoro-4-[4-({[4-yl]methyl}carbamoyl)-1H-1,2,3-triazol-1-yl]butyl}-N-methyl-1H-1,2,3-triazole-4-carboxamide], in experiment [1], the pEC50 was 5.30 to 6.30. Also, in experiment [2], the pIC50 is 6.30 to 7.00.
For `CNC(=O)c1cn(CC(F)CCn2cc(C(=O)NCc3cc(OC(F)(F)F)ccc3F)nn2)nn1` (stereo not shown) [Example 150, 1-{2-fluoro-4-[4-({[2-fluoro-5-(trifluoromethoxy)phenyl]methyl}carbamoyl)-1H-1,2,3-triazol-1-yl]butyl}-N-methyl-1H-1,2,3-triazole-4-carboxamide] the same measures were 6.30 to 7.00 and 6.30 to 7.00.
For `CNC(=O)c1cn(CCC(F)Cn2cc(C(=O)NCc3cncc(C(F)(F)F)c3)nn2)nn1` (stereo not shown) [Example 151, 1-{3-fluoro-4-[4-({[5-(trifluoromethyl)pyridin-3-1-yl]methyl}carbamoyl)-1H-1,2,3-triazol-1-yl]butyl}-N-methyl-1H-1,2,3-triazole-4-carboxamide] the same measures were 5.30 to 6.30 and 6.30 to 7.00.

(Values after US10344025B2, “GLS1 inhibitors for treating disease” (Board of Regents, The University of Texas System, priority 2014, dated 2019).)
